The values below come from patent US20260022143A1, “Cyclic Peptide Inhibitors of IL-23” (JANSSEN PHARMACEUTICA NV, priority 2022, published 2026).

Molecules are shown by their SMILES. Starred links: 1 amine or outer side, 2 acyl side, 3 side chain; linkers in the order of their positions; H or OH if unused. Positions of bridges follow the written chain, without caps; N, C: chain ends. Non-standard residues stand in square brackets, D forms with d. Residues, ends and D or L forms follow the SMILES beside them. Groups on a side chain read outwards from the residue. *: point of attachment. Trp(7-(3-AcNH-Ph)) = CC(=O)Nc1cccc(-c2cccc3c(C[C@H](N)C(=O)O)c[nH]c23)c1; Me3N+(CH2)2O(CH2)2O(CH2)2CO = C[N+](C)(C)CCOCCOCCC(=O)*; CH2CH2OCH2CH2OCH2CH2NMe3+ = C[N+](C)(C)CCOCCOCC*; NH(CH2CH2O)2CH2CH2NMe3+ = C[N+](C)(C)CCOCCOCCN*; Trp(7-Me) = Cc1cccc2c(C[C@H](N)C(=O)O)c[nH]c12; Abu(4-yl) = O=C([C@H](CC[*:3])N[*:1])[*:2]; γGlu = O=C(O)[C@H](CCC(=O)[*:2])N[*:1]; 2Nal = N[C@@H](Cc1ccc2ccccc2c1)C(=O)O; X22 = CN1CC[N+](C)(CCOCCOCC*)CC1; 3Pal = N[C@@H](Cc1cccnc1)C(=O)O; Lys(Me) = CNCCCC[C@H](N)C(=O)O; NMeK = CN[C@@H](CCCCN)C(=O)O; Pen = CC(C)(S)[C@H](N)C(=O)O; Lauroyl = CCCCCCCCCCCC(=O)*; αMeC = C[C@](N)(CS)C(=O)O; X31 = N=C(N)NCCOCCC(=O)*; Thp = NC1(C(=O)O)CCOCC1; X3 = C[N+](C)(C)CCCCC*; AEEA = NCCOCCOCC(=O)O; Sar = CNCC(=O)O

The target of data set [1] is T1, IL-23R (Homo sapiens, UniProt Q5VWK5).
T1 construct: host or cells: HEK293
T1 sequence (Q5VWK5 24-629): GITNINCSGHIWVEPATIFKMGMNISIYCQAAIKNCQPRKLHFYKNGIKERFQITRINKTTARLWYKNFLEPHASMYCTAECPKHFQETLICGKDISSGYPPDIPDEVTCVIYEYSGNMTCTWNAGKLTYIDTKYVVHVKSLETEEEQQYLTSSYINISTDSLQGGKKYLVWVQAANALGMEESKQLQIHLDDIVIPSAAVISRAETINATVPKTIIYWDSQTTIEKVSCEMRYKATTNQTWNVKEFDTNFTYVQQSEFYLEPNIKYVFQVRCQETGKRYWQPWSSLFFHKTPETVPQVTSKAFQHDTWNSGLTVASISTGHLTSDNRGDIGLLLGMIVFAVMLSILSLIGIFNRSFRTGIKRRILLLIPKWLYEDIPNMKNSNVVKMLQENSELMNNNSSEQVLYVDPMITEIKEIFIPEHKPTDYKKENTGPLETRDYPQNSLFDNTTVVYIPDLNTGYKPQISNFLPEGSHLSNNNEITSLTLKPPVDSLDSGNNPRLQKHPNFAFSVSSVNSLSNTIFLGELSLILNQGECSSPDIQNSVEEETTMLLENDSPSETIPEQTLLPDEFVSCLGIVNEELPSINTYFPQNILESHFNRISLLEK
The data set is described as follows: IL23R Reporter Assay. Type of data set: cell-based. To be noted: HEK293 cells containing IL-23R, IL-12RP1 and STAT-inducible firefly luciferase reporter; 10 ng/mL IL-23 (EC90); 5 h at 37° C.; read-out: IL23R Reporter Assay.

A short description of data set [2]: Exposed Polar Surface Area (EPSA). Type of data set: physicochemical. To be noted: SFC on Chirex 3014 column; sample 1 mM DMSO stock; read-out: EPSA. The procedure, abridged: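 Chirex 3014 column, 35 °C, 4 mL/min; CO2/MeOH + 20 mM NH4 formate, 5→60% modifier at 20%/min. UV/MS detection. EPSA (Å^2) from retention time vs 8-standard calibration line; duplicates; 1 mM DMSO stock injected undiluted.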

Turning to `CCCCCCCCCCCC(=O)N[C@@H](CCC(=O)NCCOCCOCC(=O)NCCOCCOCC(=O)NCCCC[C@@H]1NC(=O)[C@H](Cc2c[nH]c3c(C)cccc23)NC(=O)[C@H]([C@@H](C)O)NC(=O)[C@H](CC(=O)N(C)C)NC(=O)[C@@H](NC(=O)CCOCCOCC[N+](C)(C)C)C(C)(C)SSC(C)(C)[C@@H](C(=O)N[C@@H](Cc2ccc(OCCCCC[N+](C)(C)C)cc2)C(=O)N[C@@H](Cc2ccc3ccccc3c2)C(=O)NC2(C(=O)N[C@@H](CCCCN(C)C(C)=O)C(=O)N[C@@H](CC(N)=O)C(=O)N[C@@H](Cc3cccnc3)C(=O)N(C)[C@@H](CCCCNC(=O)COCCOCCNC(=O)COCCOCCNC(=O)CC[C@H](NC(=O)CCCCCCCCCCC)C(=O)O)C(N)=O)CCOCC2)NC1=O)C(=O)O` [compound 352, cPEG3aCO-Pen(3)-N(N(Me)2)-T-7MeW-K(PEG2PEG2gEC12)-Pen(3)-TMAPF-2Nal-THP-K(NMeac)-N-3Pya-NMeK(PEG2PEG2gEC12)-CONH2] ({Me3N+(CH2)2O(CH2)2O(CH2)2CO}-[Pen]D(NMe2)T[Trp(7-Me)]K([AEEA-AEEA-γGlu-Lauroyl])[Pen]Y(X3)[2Nal][Thp][Lys(Me)](Ac)N[3Pal][NMeK]([AEEA-AEEA-γGlu-Lauroyl])-NH2; disulfide 1-6), the IC50 in data set [1] is 190 nM. Moreover, the EPSA in data set [2] is 179 A^2.

With `CC(=O)N(C)CCCC[C@@H]1NC(=O)[C@H](Cc2c[nH]c3c(C)cccc23)NC(=O)[C@H]([C@@H](C)O)NC(=O)[C@H](CC(=O)N(C)C)NC(=O)[C@@H](NC(=O)CCOCCNC(=N)N)C(C)(C)SSC(C)(C)[C@@H](C(=O)N[C@@H](Cc2ccc(OCCCCC[N+](C)(C)C)cc2)C(=O)N[C@@H](Cc2ccc3ccccc3c2)C(=O)NC2(C(=O)N[C@@H](CCCCN(C)C(C)=O)C(=O)N[C@@H](CC(N)=O)C(=O)N[C@@H](Cc3cccnc3)C(=O)N(C)CC(=O)N(C)C)CCOCC2)NC1=O` [compound 390, cPEG2gCO-Pen(3)-N(N(Me)2)-T-7MeW-K(NMeAc)-Pen(3)-TMAPF-2Nal-THP-K(NMeAc)-N-3Pya-Sar-CON(Me)2] (X31-[Pen]D(NMe2)T[Trp(7-Me)][Lys(Me)](Ac)[Pen]Y(X3)[2Nal][Thp][Lys(Me)](Ac)N[3Pal][Sar]-NMe2; disulfide 1-6), in data set [1], the IC50 was 1.2 nM. Also, the EPSA in data set [2] was determined as 148 A^2.

Consider `CC(=O)N(C)CCCC[C@@H]1NC(=O)[C@H](Cc2c[nH]c3c(C)cccc23)NC(=O)[C@H]([C@@H](C)O)NC(=O)[C@H](CC(=O)N(C)C)NC(=O)[C@@H](NC(=O)CCOCCOCC[N+](C)(C)C)C(C)(C)SSC(C)(C)[C@@H](C(=O)N[C@@H](Cc2ccc(OCCOCCOCC[N+](C)(C)C)cc2)C(=O)N[C@@H](Cc2ccc3ccccc3c2)C(=O)NC2(C(=O)N[C@@H](CCC(=O)O)C(=O)N[C@@H](CC(N)=O)C(=O)N[C@@H](Cc3cccnc3)C(=O)N(C)CC(=O)N(C)C)CCOCC2)NC1=O` [compound 184, cPEG3aCO-Pen(3)-N(N(Me)2)-T-7MeW-K(NMeAc)-Pen(3)-APEG3F-2Nal-THP-E-N-3Pya-Sar-CON(Me)2] ({Me3N+(CH2)2O(CH2)2O(CH2)2CO}-[Pen]D(NMe2)T[Trp(7-Me)][Lys(Me)](Ac)[Pen]Y(CH2CH2OCH2CH2OCH2CH2NMe3+)[2Nal][Thp]EN[3Pal][Sar]-NMe2; disulfide 1-6), for which, in data set [1], the IC50 amounted to 3.4 nM. Besides, the EPSA in data set [2] worked out at 142 A^2.

For `CC(=O)NCCCC[C@@H]1NC(=O)[C@H](Cc2c[nH]c3c(C)cccc23)NC(=O)[C@H]([C@@H](C)O)NC(=O)[C@H](CC(N)=O)NC(=O)[C@@H](NC(C)=O)C(C)(C)SSC(C)(C)[C@@H](C(=O)N[C@@H](Cc2ccc(OCCOCCOCC[N+]3(C)CCN(C)CC3)cc2)C(=O)N[C@@H](Cc2ccc3ccccc3c2)C(=O)NC2(C(=O)N[C@@H](CCCCNC(C)=O)C(=O)N[C@@H](CC(N)=O)C(=O)N[C@@H](Cc3cccnc3)C(=O)N(C)CC(N)=O)CCOCC2)NC1=O` [compound 434] (Ac-[Pen]NT[Trp(7-Me)]K(Ac)[Pen]Y(X22)[2Nal][Thp]K(Ac)N[3Pal][Sar]-NH2; disulfide 1-6 (inferred)), the IC50 in data set [1] came out at 3.1 nM. In addition, the EPSA in data set [2] came to 156 A^2.

In the case of `CC(=O)NCCCC[C@@H]1NC(=O)[C@H](Cc2c[nH]c3c(-c4cccc(NC(C)=O)c4)cccc23)NC(=O)[C@H]([C@@H](C)O)NC(=O)[C@H](CC(N)=O)NC(=O)[C@@H](NC(C)=O)CCSC[C@@](C)(C(=O)N[C@@H](Cc2ccc(OCCCCC[N+](C)(C)C)cc2)C(=O)N[C@@H](Cc2ccc3ccccc3c2)C(=O)NC2(C(=O)N[C@@H](CCCCNC(C)=O)C(=O)N[C@@H](CC(N)=O)C(=O)N[C@@H](Cc3cccnc3)C(=O)N(C)CC(N)=O)CCOCC2)NC1=O` [compound 477, MeCO-Abu(1)-N-T-7(3NAcPh)W-K(Ac)-aMeC(1)-TMAPF-2Nal-THP-K(Ac)-N-3Pya-Sar-CONH2] (Ac-[Abu(4-yl)]NT[Trp(7-(3-AcNH-Ph))]K(Ac)[αMeC]Y(X3)[2Nal][Thp]K(Ac)N[3Pal][Sar]-NH2; thioether 1-6), the IC50 in data set [1] was determined as 6.1 nM. Besides, the EPSA in data set [2] is 166 A^2.

Consider `CC(=O)NCCCC[C@@H]1NC(=O)[C@H](Cc2c[nH]c3c(C)cccc23)NC(=O)[C@H]([C@@H](C)O)NC(=O)[C@H](CC(N)=O)NC(=O)[C@@H](NC(=O)CCCc2ccc(I)cc2)C(C)(C)SSC(C)(C)[C@@H](C(=O)N[C@@H](Cc2ccc(OCCCCC[N+](C)(C)C)cc2)C(=O)N[C@@H](Cc2ccc3ccccc3c2)C(=O)NC2(C(=O)N[C@@H](CCCCNC(C)=O)C(=O)N[C@@H](CC(N)=O)C(=O)N[C@@H](Cc3cccnc3)C(=O)N(C)CC(N)=O)CCOCC2)NC1=O` [compound 547, IPBCO-Pen(3)-N-T-7MeW-K(Ac)-Pen(3)-TMAPF-2Nal-THP-K(Ac)-N-3Pya-Sar-CONH2], for which the IC50 in data set [1] stood at 4.6 nM. The EPSA in data set [2] amounted to 168 A^2.

For `CC(=O)N(C)CCCC[C@@H]1NC(=O)[C@H](Cc2c[nH]c3c(C)cccc23)NC(=O)[C@H]([C@@H](C)O)NC(=O)[C@H](CC(=O)N(C)C)NC(=O)[C@@H](NC(=O)CCOCCOCC[N+](C)(C)C)C(C)(C)SSC(C)(C)[C@@H](C(=O)N[C@@H](Cc2ccc(OCCCCC[N+](C)(C)C)cc2)C(=O)N[C@@H](Cc2c[nH]c3ccccc23)C(=O)NC2(C(=O)N[C@@H](CCCCN(C)C(C)=O)C(=O)N[C@@H](CC(N)=O)C(=O)N[C@@H](Cc3cccnc3)C(=O)N(C)CC(=O)N(C)C)CCOCC2)NC1=O` [compound 497, cPEG3aCO-Pen(3)-N(N(Me)2)-T-7MeW-K(NMeAc)-Pen(3)-TMApF-W-THP-K(NMeAc)-N-3Pya-Sar-CON(Me)2] ({Me3N+(CH2)2O(CH2)2O(CH2)2CO}-[Pen]D(NMe2)T[Trp(7-Me)][Lys(Me)](Ac)[Pen]Y(X3)W[Thp][Lys(Me)](Ac)N[3Pal][Sar]-NMe2; disulfide 1-6), the IC50 in data set [1] came out at 80 nM. Besides, the EPSA in data set [2] is 162 A^2.

Turning to `CC(=O)N(C)CCCC[C@@H]1NC(=O)[C@H](Cc2c[nH]c3c(C)cccc23)NC(=O)[C@H]([C@@H](C)O)NC(=O)[C@H](CC(=O)N(C)C)NC(=O)[C@@H](NC(=O)CCOCCOCC[N+](C)(C)C)C(C)(C)SSC(C)(C)[C@@H](C(=O)N[C@@H](Cc2ccc(OCCCCC[N+](C)(C)C)cc2)C(=O)N[C@@H](Cc2ccc3ccccc3c2)C(=O)NC2(C(=O)N[C@@H](CCCCN(C)C(C)=O)C(=O)N[C@@H](CC(N)=O)C(=O)N[C@@H](Cc3cccnc3)C(=O)N(C)CC(=O)NCCOCCOCC[N+](C)(C)C)CCOCC2)NC1=O` [compound 220, cPEG3aCO-Pen(3)-N(N(Me)2)-T-7MeW-K(NMeAc)-Pen(3)-TMAPF-2Nal-THP-K(NMeAc)-N-3Pya-Sar-CO(NHPEG3a)] ({Me3N+(CH2)2O(CH2)2O(CH2)2CO}-[Pen]D(NMe2)T[Trp(7-Me)][Lys(Me)](Ac)[Pen]Y(X3)[2Nal][Thp][Lys(Me)](Ac)N[3Pal][Sar]-{NH(CH2CH2O)2CH2CH2NMe3+}; disulfide 1-6), the IC50 in data set [1] was found to be 1.4 nM. Moreover, the EPSA in data set [2] was 142 A^2.

As to `CC(=O)NCCCC[C@@H]1NC(=O)[C@H](Cc2c[nH]c3c(-c4cccc(NC(C)=O)c4)cccc23)NC(=O)[C@H]([C@@H](C)O)NC(=O)[C@H](CC(N)=O)NC(=O)[C@@H](NC(C)=O)C(C)(C)SSC(C)(C)[C@@H](C(=O)N[C@@H](Cc2ccc(OCCNC(=N)N)cc2)C(=O)N[C@@H](Cc2ccc3ccccc3c2)C(=O)NC2(C(=O)N[C@@H](CCCCN(C)C(C)=O)C(=O)N[C@@H](CC(N)=O)C(=O)N[C@@H](Cc3cccnc3)C(=O)N(C)CC(N)=O)CCOCC2)NC1=O` [compound 515, MeCO-Pen(3)-N-T-7(3NAcPh)W-K(Ac)-Pen(3)-AEF(G)-2Nal-THP-K(NMeAc)-N-3Pya-Sar-CONH2], the IC50 in data set [1] worked out at 3.8 nM. The EPSA in data set [2] was determined as 197 A^2.
